Measurements taken from the supplement of paper PMC10627819.

Experiments:
[1] = tested on: S. aureus Newman; experiment: fitness (endpoint OD595 vs no drug) (fraction); higher = more growth
Outline: (§1)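 Fitness was measured as bacterial growth in 384-well plates inoculated at OD595 0.01 (30 µl, or 55 µl for S. pneumoniae). Media were TSB, LB Lennox or CY, at 37 °C. OD595 was read every 30 min for 14 h and background-subtracted against the first reading. Fitness is OD595 at the transition into stationary phase divided by the robust mean of no-drug control wells, capped at 1.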

[2] = tested on: B. subtilis 168; experiment: as above
Outline: as §1

[3] = tested on: S. pneumoniae D39V; experiment: as above
Outline: as §1

[4] = tested on: S. aureus DSM 20231; experiment: Bliss interaction score (quartile over a dose matrix) (fitness difference); higher = more antagonism (negative = synergy)
Outline: (§2)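 Quartiles of the Bliss score were taken over technical, biological and donor/recipient replicates. That score is observed fitness minus the product of the single-drug fitness values, which were inferred from combination data. Fitness itself is OD595 at entry into stationary phase divided by the plate's robust no-drug mean, with a cap at 1.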

[5] = tested on: S. aureus Newman; experiment: as above
Outline: as §2

[6] = tested on: B. subtilis 168; experiment: as above
Outline: as §2

[7] = tested on: S. pneumoniae D39V; experiment: as above
Outline: as §2

[8] = tested on: S. aureus DSM 20231; experiment: fitness (endpoint OD595 vs no drug) (fraction); higher = more growth
Outline: as §1
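Throughout, for Bliss interaction score (quartile over a dose matrix): first quartile when negative (synergy) and third quartile when positive (antagonism).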

CO/N=C(\C(=O)N[C@@H]1C(=O)N2C(C(=O)O)=C(COC(C)=O)CS[C@H]12)c1csc(N)n1 [Cefotaxime] + CC(C1CCC(C(O1)OC2C(CC(C(C2O)OC3C(C(C(CO3)(C)O)NC)O)N)N)N)NC [Gentamicin]
one replicate, main component drawn
Conditions	fitness
[1], first compound 0.039 µg/mL, partner 0.5 µg/mL	0.79
[1], first compound 0.039 µg/mL, partner 1 µg/mL	0.857
[1], first compound 0.039 µg/mL, partner 2 µg/mL	0.951
[1], first compound 0.078 µg/mL, partner 0.375 µg/mL	0.757
[1], first compound 0.078 µg/mL, partner 0.5 µg/mL	0.821
[1], first compound 0.078 µg/mL, partner 0.75 µg/mL	0.772
[1], first compound 0.078 µg/mL, partner 1 µg/mL	0.8
[1], first compound 0.078 µg/mL, partner 1.5 µg/mL	0.759
[1], first compound 0.078 µg/mL, partner 2 µg/mL	0.977
[1], first compound 0.156 µg/mL, partner 0.375 µg/mL	0.52
[1], first compound 0.156 µg/mL, partner 0.5 µg/mL	0.744
[1], first compound 0.156 µg/mL, partner 0.75 µg/mL	0.533
[1], first compound 0.156 µg/mL, partner 1 µg/mL	0.763
[1], first compound 0.156 µg/mL, partner 1.5 µg/mL	0.595
[1], first compound 0.156 µg/mL, partner 2 µg/mL	0.872
[1], first compound 0.312 µg/mL, partner 0.375 µg/mL	0.345
[1], first compound 0.312 µg/mL, partner 0.75 µg/mL	0.389
[1], first compound 0.312 µg/mL, partner 1.5 µg/mL	0.399
[1], first compound 0.625 µg/mL, partner 0.375 µg/mL	0.0576
[1], first compound 0.625 µg/mL, partner 0.75 µg/mL	0.0523
[1], first compound 0.625 µg/mL, partner 1.5 µg/mL	0.0345
[1], first compound 1.25 µg/mL, partner 0.375 µg/mL	0.0504
[1], first compound 1.25 µg/mL, partner 0.75 µg/mL	0.0617
[1], first compound 1.25 µg/mL, partner 1.5 µg/mL	0.0569
[1], first compound 2.5 µg/mL, partner 0.375 µg/mL	0.0422
[1], first compound 2.5 µg/mL, partner 0.75 µg/mL	0.074
[1], first compound 2.5 µg/mL, partner 1.5 µg/mL	0.0764
[2], first compound 0.00775 µg/mL, partner 0.0625 µg/mL	0.66
[2], first compound 0.00775 µg/mL, partner 0.125 µg/mL	0.0541
[2], first compound 0.00775 µg/mL, partner 0.25 µg/mL	0.0723
[2], first compound 0.0155 µg/mL, partner 0.0625 µg/mL	0.16
[2], first compound 0.0155 µg/mL, partner 0.125 µg/mL	0.0431
[2], first compound 0.0155 µg/mL, partner 0.25 µg/mL	0.0419
[2], first compound 0.031 µg/mL, partner 0.0625 µg/mL	0.0439
[2], first compound 0.031 µg/mL, partner 0.125 µg/mL	0.0439
[2], first compound 0.031 µg/mL, partner 0.25 µg/mL	0.0452
[2], first compound 0.0625 µg/mL, partner 0.0625 µg/mL	0.754
[2], first compound 0.0625 µg/mL, partner 0.125 µg/mL	0.701
[2], first compound 0.0625 µg/mL, partner 0.25 µg/mL	0.155
[2], first compound 0.125 µg/mL, partner 0.0625 µg/mL	0.65
[2], first compound 0.125 µg/mL, partner 0.125 µg/mL	0.449
[2], first compound 0.125 µg/mL, partner 0.25 µg/mL	0.103
[2], first compound 0.25 µg/mL, partner 0.0625 µg/mL	0.581
[2], first compound 0.25 µg/mL, partner 0.125 µg/mL	0.22
[2], first compound 0.25 µg/mL, partner 0.25 µg/mL	0.129

main component drawn
Conditions	fitness
[1], first compound 0.625 µg/mL, partner 0.5 µg/mL	0.389
[1], first compound 0.625 µg/mL, partner 1 µg/mL	0.44
[1], first compound 0.625 µg/mL, partner 2 µg/mL	0.397
[1], first compound 1.25 µg/mL, partner 0.5 µg/mL	0.0594
[1], first compound 1.25 µg/mL, partner 1 µg/mL	0.0679
[1], first compound 1.25 µg/mL, partner 2 µg/mL	0.0372
[1], first compound 2.5 µg/mL, partner 0.5 µg/mL	0.0199
[1], first compound 2.5 µg/mL, partner 1 µg/mL	0.0366
[1], first compound 2.5 µg/mL, partner 2 µg/mL	0.0507
[2], first compound 0.5 µg/mL, partner 0.0625 µg/mL	0.155
[2], first compound 0.5 µg/mL, partner 0.125 µg/mL	0.055
[2], first compound 0.5 µg/mL, partner 0.25 µg/mL	0.0842
[2], first compound 1 µg/mL, partner 0.0625 µg/mL	0.0509
[2], first compound 1 µg/mL, partner 0.125 µg/mL	0.04
[2], first compound 1 µg/mL, partner 0.25 µg/mL	0.0527
[2], first compound 2 µg/mL, partner 0.0625 µg/mL	0.0909
[2], first compound 2 µg/mL, partner 0.125 µg/mL	0.0759
[2], first compound 2 µg/mL, partner 0.25 µg/mL	0.0872
[3], first compound 0.0018 µg/mL, partner 2 µg/mL	0.999
[3], first compound 0.0018 µg/mL, partner 4 µg/mL	0.988
[3], first compound 0.0018 µg/mL, partner 8 µg/mL	0.971
[3], first compound 0.0035 µg/mL, partner 2 µg/mL	0.967
[3], first compound 0.0035 µg/mL, partner 4 µg/mL	0.956
[3], first compound 0.0035 µg/mL, partner 8 µg/mL	0.917
[3], first compound 0.007 µg/mL, partner 2 µg/mL	0.895
[3], first compound 0.007 µg/mL, partner 4 µg/mL	0.896
[3], first compound 0.007 µg/mL, partner 8 µg/mL	0.867

main component drawn
Conditions	Bliss interaction score
[4]	0.0541
[5]	0.0788
[6]	-0.0898
[7]	0.0656

CO/N=C(\C(=O)N[C@@H]1C(=O)N2C(C(=O)O)=C(COC(C)=O)CS[C@H]12)c1csc(N)n1 [Cefotaxime] + Cc1ncc([N+](=O)[O-])n1CCO [Metronidazole]
fitness
Conditions	partner 0.625 µg/mL	partner 1.073 µg/mL	partner 1.25 µg/mL	partner 2.145 µg/mL	partner 2.5 µg/mL	partner 4.29 µg/mL	partner 5 µg/mL
[1], first compound 0.078 µg/mL	0.767	–	0.779	–	0.792	–	–
[1], first compound 0.156 µg/mL	0.663	–	0.705	–	0.674	–	–
[2], first compound 0.5 µg/mL	0.299	–	0.289	–	0.278	–	–
[2], first compound 1 µg/mL	0.152	–	0.135	–	0.146	–	–
[2], first compound 2 µg/mL	0.0908	–	0.109	–	0.108	–	–
[3], first compound 0.0018 µg/mL	–	0.976	0.963	0.928	0.996	0.972	0.975
[3], first compound 0.0035 µg/mL	–	0.987	0.979	0.92	0.975	0.939	0.973
[3], first compound 0.007 µg/mL	–	0.95	0.961	0.89	0.99	0.933	0.953
[8], first compound 0.039 µg/mL	0.825	–	0.888	–	0.963	–	–
[8], first compound 0.078 µg/mL	0.829	–	0.828	–	0.913	–	–
[8], first compound 0.156 µg/mL	0.689	–	0.745	–	0.813	–	–
[8], first compound 0.312 µg/mL	0.621	–	0.649	–	0.674	–	–

fitness, one replicate
Conditions	partner 0.625 µg/mL	partner 0.781 µg/mL	partner 1.25 µg/mL	partner 1.562 µg/mL	partner 2.5 µg/mL	partner 3.124 µg/mL
[1], first compound 0.039 µg/mL	0.888	–	0.794	–	0.817	–
[1], first compound 0.078 µg/mL	–	0.714	–	0.756	–	0.788
[1], first compound 0.156 µg/mL	–	0.492	–	0.486	–	0.529
[1], first compound 0.312 µg/mL	0.248	0.305	0.311	0.397	0.329	0.361
[1], first compound 0.625 µg/mL	–	0.0599	–	0.0931	–	0.0887
[1], first compound 1.25 µg/mL	–	0.0419	–	0.0637	–	0.07
[1], first compound 2.5 µg/mL	–	0.0362	–	0.0976	–	0.0571
[2], first compound 0.00775 µg/mL	0.871	–	0.887	–	0.851	–
[2], first compound 0.0155 µg/mL	0.728	–	0.672	–	0.707	–
[2], first compound 0.031 µg/mL	0.553	–	0.576	–	0.594	–

Conditions	Bliss interaction score
[4]	-0.0403
[5]	0.0437
[6]	0.0904
[7]	0.0575
